Measured values from patent publication US10668018B2, “Pharmaceutical compositions” (MEXICHEM AMANCO HOLDINGS S.A. DE C.V., priority 2011, dated 2020).

What was measured:
[1] = Amount of ethanol required to dissolve the drug in propellant/ethanol mixture (visual, first clear solution); format: physicochemical; conditions: for ethanol required to dissolve the drug: 20° C., drug amount equivalent to MDI dose of 50 μg (FP) or 250 μg (BDP); for Ethanol Content in R-134a / Ethanol Content in R-152a: amount required to dissolve the drug completely, BDP 250 μg, FP 50 μg dose
Experimental: A series of glass vials were charged with 0.00869 g (8.69 mg) of fluticasone propionate. R-152a propellant was then added to each vial, the amount being decreased from one vial to the next to compensate for increasing amounts of ethanol. An amount of ethanol was then added to each vial, with the amount being increased in increments from one vial to the next, in order to determine the minimum amount of ethanol required to dissolve the fluticasone propionate in the R-152a/ethanol mixture. […] The amount of ethanol in the R-152a/ethanol mixture was increased from 1% by weight on the total weight of the R-152a/ethanol mixture in 1% w/w increments. After adding the ethanol, each vial was sonicated in an effort to dissolve the drug, stored at 20° C. and then examined visually to determine whether the drug had in fact dissolved. […] It was determined that 5.0% w/w of ethanol was required to dissolve the fluticasone propionate. […] R-152a propellant was then added to each vial, the amount being decreased from one vial to the next to compensate for increasing amounts of ethanol. […] The amount of ethanol in the R-152a/ethanol mixture was increased from 1% by weight on the total weight of the R-152a/ethanol mixture in 1% w/w increments. After adding the ethanol, each vial was sonicated in an effort to dissolve the drug, stored at 20° C. and then examined visually to determine whether the drug had in fact dissolved. […] Exactly the same procedure as described in Example 3 above was used except that R-134a was used as the propellant. It was determined that 13.0% w/w of ethanol (% by weight on the total weight of the R-134a/ethanol mixture) was required to dissolve the fluticasone propionate. […] Exactly the same procedure as described in Example 4 above was used except that R-134a was used as the propellant. […] The drug was weighed directly into standard aluminium 19 mL cans (C128, Presspart, Blackburn, UK), to which an appropriate amount of ethanol was added to aid solubility of the drug on addition of the propellant. The slurry of the drug in ethanol was then sonicated for 60 minutes in order to disperse the drug in the ethanol. The cans were then crimped with a 50 μL valve (Bespak, Kings Lynn, UK) following which R-152a or R-134a as appropriate was filled into the cans through the valve using a manual Pamasol crimper/filler (Pamasol, Switzerland). […] Finally, all the cans were quarantined for 14 days, valve down, at 22° C./44% RH before commencing testing of the final formulations.

[2] = Solubility of drug in liquefied propellant (pressure solubility apparatus, HPLC); format: physicochemical; conditions: stored at 20° C. for 24 hours, n=3
Experimental: An excess of active pharmaceutical ingredient was placed into a pressure cylinder (300 cm^3 stainless steel cylinder from Whitey, Inc.). A vacuum was applied to the cylinder, which was then chilled using liquid nitrogen. Approximately 80 grams of either R-152a or R-134a propellant was charged into the cylinder, which was then stored at 20° C. for 24 hours.
A filtration unit comprising a 15 μm filter in-line with a 5 μm filter was connected to the cylinder containing the excess of drug in propellant. A second receiver pressure cylinder (150 cm^3 stainless steel cylinder from Whitey, Inc.) was exposed to a vacuum and chilled using liquid nitrogen, which was then connected to the filtration unit. Approximately 30 grams of liquid propellant containing drug in excess was passed through the filtration unit and collected in the receiver pressure cylinder.
A modified piece of 3.2 mm (⅛″) tubing was connected to the end of the receiver pressure cylinder, which was then attached to the stem of a continuous valve crimped on to a glass bottle. The 3.2 mm (⅛″) tubing was used to depress the stem of the valve and therefore, enable the contents of the receiver pressure cylinder to be collected in the glass bottle. […] The glass bottle was re-weighed and the mass of drug collected in the DUSA was determined by high performance liquid chromatography (HPLC). […]

Row | ethanol required to dissolve the drug ([1]; R-134a/ethanol mixture) [% w/w] | ethanol required to dissolve the drug ([1]; R-152a/ethanol mixture) [% w/w] | Ethanol Content in R-134a [1] [% w/w] | Ethanol Content in R-152a [1] [% w/w] | mean drug solubility (± S.D.) ([2]; propellant comprising 100% R-134a) [µg/g] | mean drug solubility (± S.D.) ([2]; propellant comprising 100% R-152a) [µg/g] | SMILES
1 | 4.0 | 2.0 | 4.0 | 2.0 | – | – | CCC(=O)OCC(=O)[C@@]1(OC(=O)CC)[C@@H](C)C[C@H]2[C@@H]3CCC4=CC(=O)C=C[C@]4(C)[C@@]3(Cl)[C@@H](O)C[C@@]21C [beclomethasone dipropionate]
2 | 13.0 | 5.0 | 13.0 | 5.0 | 14.27 ± 1.66 | 73.55 ± 3.98 | CCC(=O)O[C@]1(C(=O)SCF)[C@H](C)C[C@H]2[C@@H]3C[C@H](F)C4=CC(=O)C=C[C@]4(C)[C@@]3(F)[C@@H](O)C[C@@]21C [fluticasone propionate]
